Marks after values point to notes of the source that are not given here.
Key:
[1] = target: T1, PPARγ (Homo sapiens, UniProt P37231); test: Commercial PPARγ binding assay (Invitrogen, PPAR-LBD/Fluormone PPAR Green complex); details: for PPARγ binding signal (fluorescence polarization, Fluormone PPAR Green displacement): mean of three experiments; for Binding to PPARγ (in words): referring to FIG. 1 and Table B
T1 construct: purchased Invitrogen Corporation, Carlsbad, Calif
T1 sequence (P37231 238-503 limits assumed): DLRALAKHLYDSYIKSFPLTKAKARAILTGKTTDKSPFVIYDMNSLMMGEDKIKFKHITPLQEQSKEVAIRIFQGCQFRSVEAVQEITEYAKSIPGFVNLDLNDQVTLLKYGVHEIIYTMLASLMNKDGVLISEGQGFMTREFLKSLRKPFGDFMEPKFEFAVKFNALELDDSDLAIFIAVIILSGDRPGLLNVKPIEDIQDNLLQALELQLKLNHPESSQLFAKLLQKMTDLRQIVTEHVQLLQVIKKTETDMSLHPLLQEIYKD
Description: The ability of several exemplary compounds of the present invention, shown in Table A, to bind to PPARγ was measured using a commercial binding assay (Invitrogen Corporation, Carlsbad, Calif.) that measures the test compounds ability to bind with PPAR-LBD/Fluormone PPAR Green complex. These assays were performed on three occasions with each assay using four separate wells (quadruplicate) at each concentration of tested compound. The data are mean and SEM of the values obtained from the three experiments. […] Compounds were added at the concentrations shown, which range from 0.1-100 micromolar.

[2] = system: Diabetic KKAy mice; test: Glucose, insulin and triglyceride in diabetic KKAy mice, 4 days oral dosing; format: in vivo; details: for Glucose / Insulin / Triglycerides: 93 mg/kg orally for 4 days, fasted, blood approx. 18 hours after last dose, mean and SEM; for Effectiveness at lowering glucose, insulin and triglyceride levels / antidiabetic activity (in words): Table C
Description: The insulin sensitizing and antidiabetic pharmacology are measured in the KKA^Y mice as previously reported [Hofmann, C., Lomez, K., and Colca, J. R. (1991). Glucose transport deficiency corrected by treatment with the oral anti-hyperglycemic agent Pioglitazone. Endocrinology, 129:1915-1925.]. Compounds are formulated in 1% sodium carboxy methylcellulose, and 0.01% tween 20 and dosed daily by oral gavage.
Compounds were formulated by suspension and orally dosed to KKAy mice at 93 mg/kg for 4 days. The compounds were first dissolved in DMSO and then placed into aqueous suspension containing 7-10% DMSO, 1% sodium methylcarboxycellulose, and 0.01% Tween 20. On the fifth day, the mice were fasted and blood samples were obtained approximately 18 hours after the last dose. The parameters were measured by standard assay methods. Data are mean and SEM N=6-12 mice.

[3] = system: Diabetic KKAy mice; test: Glucose and insulin in diabetic KKAy mice dosed 7 days with compound 1 or rosiglitazone; format: in vivo; details: 20 mg rosiglitazone or 100 mg/kg compound 1, fasting, 8th day, mean, 8 mice/group
Description: KKAy mice were dosed for 7 days with 20 mg rosigltiazone (positive control) and 100 mg/kg of compound 1 in suspension (1% sodium methyl carboxymethyl cellulose/0.01% Tween 80). On the 8th day, fasting, glucose, and insulin were measured, see Table D. The liver was isolated was used to measure hepatic mRNA for aP2, a biomarker for PPARγ activation in vivo. […] Data are mean and (SEM) for 8 mice/group.

PPARγ binding signal (fluorescence polarization, Fluormone PPAR Green displacement) ([1]; 1 μM compound) | PPARγ binding signal (fluorescence polarization, Fluormone PPAR Green displacement) ([1]; 3 μM compound) | PPARγ binding signal (fluorescence polarization, Fluormone PPAR Green displacement) ([1]; 10 μM compound) | PPARγ binding signal (fluorescence polarization, Fluormone PPAR Green displacement) ([1]; 50 μM compound) | PPARγ binding signal (fluorescence polarization, Fluormone PPAR Green displacement) ([1]; 100 μM compound) | PPARγ binding signal (fluorescence polarization, Fluormone PPAR Green displacement) ([1]; .1 μM compound) | PPARγ binding signal (fluorescence polarization, Fluormone PPAR Green displacement) ([1]; .3 μM compound) | Binding to PPARγ (in words) [1] | Compound | Glucose ([2]; N=6-12, 93 mg/kg) [mg/dL] | Insulin ([2]; N=6-12, 93 mg/kg) [ng/mL] | Triglycerides ([2]; N=6-12, 93 mg/kg) [mg/dL] | Effectiveness at lowering glucose, insulin and triglyceride levels / antidiabetic activity (in words) [2] | Glucose ([2]; N=6-12) | Insulin ([2]; N=6-12) | Triglycerides ([2]; N=6-12) | Glucose [3] [mg/dL] | Insulin [3] [ng/mL]
234 | 224 | 200 | 122 | 91 | 236 | 230 |  | CCc1ccc(CCOc2ccc(CC3(C)SC(=O)NC3=O)cc2)nc1 (single isomer, unassigned) [Compound 4] |  |  |  |  |  |  |  |  | 
233 | 223 | 198 | 126 | 99 | 246 | 246 | better PPARγ binding compounds | CCc1ccc(CCOc2ccc(CC3(C)SC(=O)NC3=O)cc2)nc1 (single isomer, unassigned) [Compound 6] | 694 ± 63 | 11.1 ± 1.6 | 298 ± 49 | not as effective as compounds 1 and 2 |  |  |  |  | 
248 | 237 | 210 | 144 | 105 | 249 | 246 | better PPARγ binding compounds | CCc1ccc(CCOc2ccc(CC3(C)SC(=O)NC3=O)cc2)nc1 (single isomer, unassigned) [Compound 7] | 631 ± 7 | 16.3 ± 1.2 | 374 ± 15 | not as effective as compounds 1 and 2 |  |  |  |  | 
228 | 226 | 212 | 132 | 106 | 235 | 230 |  | CCc1ccc(C(O)COc2ccc(CC3(C)SC(=O)NC3=O)cc2)nc1 (stereo not drawn) [Compound 5] |  |  |  |  |  |  |  |  | 
239 | 241 | 233 | 199 | 186 | 237 | 243 |  | CCc1ccc([C@@H](O)COc2ccc(CC3(C)SC(=O)NC3=O)cc2)nc1 (stereo partly drawn) [Compound 8] |  |  |  |  | 756 ± 31 mg/dL | 12.8 ± 2.6 ng/mL | 465 ± 64 mg/dL |  | 
239 | 233 | 234 | 189 | 164 | 237 | 237 |  | CCc1ccc([C@H](O)COc2ccc(CC3(C)SC(=O)NC3=O)cc2)nc1 (stereo partly drawn) [Compound 9] |  |  |  |  | 740 ± 37 mg/dL | 14.8 ± 2.5 ng/mL | 354 ± 43 mg/dL |  | 
240 | 234 | 219 | 126 | 93 | 245 | 239 |  | CCc1ccc(C(=O)COc2ccc(CC3(C)SC(=O)NC3=O)cc2)nc1 (stereo not drawn) [Compound 10] |  |  |  |  |  |  |  |  | 
232 | 229 | 165 | 128 | 78 | 230 | 227 |  | CCc1ccc(C(=CC(=O)OC)COc2ccc(CC3SC(=O)NC3=O)cc2)nc1 (stereo not drawn) [Compound 11] |  |  |  |  | 662 ± 40 mg/dL | 18.9 ± 1.6 ng/mL | 476 ± 106 mg/dL |  | 
198 | 155 | 112 | 80 | 85 | 243 | 222 |  | CCc1ccc(C(COc2ccc(CC3SC(=O)NC3=O)cc2)CC(=O)OC)nc1 (stereo not drawn) [Compound 12] |  |  |  |  |  |  |  |  | 
229 | 230 | 204 | 148 | 108 | 244 | 243 |  | CCc1ccc(C(=CCO)COc2ccc(CC3SC(=O)NC3=O)cc2)nc1 (stereo not drawn) [Compound 13] |  |  |  |  |  |  |  |  | 
 |  |  |  |  |  |  |  | CN(CCOc1ccc(CC2SC(=O)NC2=O)cc1)c1ccccn1 (stereo not drawn) [Rosiglitazone, reference compound] |  |  |  |  |  |  |  | 320 | 3.4

Compound | PPARγ binding signal (fluorescence polarization, Fluormone PPAR Green displacement) ([1]; 1 μM compound) | PPARγ binding signal (fluorescence polarization, Fluormone PPAR Green displacement) ([1]; 3 μM compound) | PPARγ binding signal (fluorescence polarization, Fluormone PPAR Green displacement) ([1]; 10 μM compound) | PPARγ binding signal (fluorescence polarization, Fluormone PPAR Green displacement) ([1]; 50 μM compound) | PPARγ binding signal (fluorescence polarization, Fluormone PPAR Green displacement) ([1]; 100 μM compound) | PPARγ binding signal (fluorescence polarization, Fluormone PPAR Green displacement) ([1]; .1 μM compound) | PPARγ binding signal (fluorescence polarization, Fluormone PPAR Green displacement) ([1]; .3 μM compound) | Binding to PPARγ (in words) [1] | Glucose ([2]; N=6-12, 93 mg/kg) [mg/dL] | Insulin ([2]; N=6-12, 93 mg/kg) [ng/mL] | Triglycerides ([2]; N=6-12, 93 mg/kg) [mg/dL] | Effectiveness at lowering glucose, insulin and triglyceride levels / antidiabetic activity (in words) [2] | Glucose ([2]; N=6-12) | Insulin ([2]; N=6-12) | Triglycerides ([2]; N=6-12) | Glucose [3] [mg/dL] | Insulin [3] [ng/mL]
CCc1ccc([C@@H](O)COc2ccc(CC3SC(=O)NC3=O)cc2)nc1 (stereo partly drawn) [Compound 2] | 238 | 236 | 223 | 162 | 136 | 231 | 233 | particularly poor binders |  |  |  | equivalent antidiabetic activity | 428 +/− 17* mg/dl | 5.7 +/− 1.6* ng/ml | 187 +/− 29* mg/dl |  | 
CCc1ccc([C@H](O)COc2ccc(CC3SC(=O)NC3=O)cc2)nc1 (stereo partly drawn) [Compound 3] | 203 | 185 | 134 | 88 | 77 | 226 | 221 |  |  |  |  | equivalent antidiabetic activity | 388 +/− 38* mg/dl | 7.2 +/− 1.9* ng/ml | 148 +/− 23* mg/dl |  | 
